Results from patent US12509454B2, “Thiadiazolyl derivatives” (IDEAYA Biosciences, Inc., priority 2019, dated 2025).

The compounds below were run against Pol theta (1-899) (Homo sapiens (Human), UniProt O75417) (assay: Pol theta ATPase activity, NADH oxidation-coupled enzymatic assay). Conditions: Pol theta (1-899) 10 nM, ATP, dT50 ssDNA, absorbance 340 nm, 10-point dilution series; read-out: ATPase NADH coupling:Standard Screening:hPolQ IC50.
Type: biochemical
In short: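 Pol theta (1-899), 10 nM, preincubated 15 min at RT with 10-point compound series in Tris pH 7.80/KCl/MgCl2 buffer, then given 100 μM ATP plus 300 nM dT50 ssDNA with PK/LDH-coupled NADH oxidation. A340 followed for 30 min; rate slopes fitted with a four-parameter model for IC50.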

Chain of Pol theta (1-899) (O75417 1-899): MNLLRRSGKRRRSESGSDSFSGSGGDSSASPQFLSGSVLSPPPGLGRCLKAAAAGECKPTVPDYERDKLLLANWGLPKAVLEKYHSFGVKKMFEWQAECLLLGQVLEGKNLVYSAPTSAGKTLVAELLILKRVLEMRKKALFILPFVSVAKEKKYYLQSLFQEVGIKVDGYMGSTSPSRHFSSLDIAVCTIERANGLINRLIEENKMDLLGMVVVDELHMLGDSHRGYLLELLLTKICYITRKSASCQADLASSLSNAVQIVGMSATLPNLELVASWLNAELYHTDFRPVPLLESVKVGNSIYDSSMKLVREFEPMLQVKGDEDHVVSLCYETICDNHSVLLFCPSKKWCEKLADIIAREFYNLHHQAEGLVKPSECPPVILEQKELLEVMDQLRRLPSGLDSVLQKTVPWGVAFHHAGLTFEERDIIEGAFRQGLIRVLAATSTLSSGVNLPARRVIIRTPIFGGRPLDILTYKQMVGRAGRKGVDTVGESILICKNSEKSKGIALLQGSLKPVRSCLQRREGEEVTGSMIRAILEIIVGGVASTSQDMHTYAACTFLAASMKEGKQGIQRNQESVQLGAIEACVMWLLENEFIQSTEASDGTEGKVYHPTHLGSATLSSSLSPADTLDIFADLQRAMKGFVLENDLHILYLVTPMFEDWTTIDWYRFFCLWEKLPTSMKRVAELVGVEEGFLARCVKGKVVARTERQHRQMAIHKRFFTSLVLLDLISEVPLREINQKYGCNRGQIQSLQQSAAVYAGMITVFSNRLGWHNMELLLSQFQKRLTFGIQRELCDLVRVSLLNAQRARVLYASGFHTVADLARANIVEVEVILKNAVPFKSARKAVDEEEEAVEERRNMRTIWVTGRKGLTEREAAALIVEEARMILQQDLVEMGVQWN

SMILES	IC50
COc1ccccc1-c1ccncc1C(=O)Nc1nnc(OCc2ccc(Cl)cn2)s1 [Example 89, N-(5-((5-chloropyridin-2-yl)methoxy)-1,3,4-thiadiazol-2-yl)-4-(2-methoxyphenyl)nicotinamide]	≤ 200 nM
COc1ccccc1-c1ccncc1C(=O)Nc1nnc(OCC2CC2)s1 [Example 90, N-(5-(cyclopropylmethoxy)-1,3,4-thiadiazol-2-yl)-4-(2-methoxyphenyl)nicotinamide]	500 to 1000 nM
COc1ccccc1-c1cc(C#N)ncc1C(=O)Nc1nnc(OCc2ccc(Cl)cc2)s1 [Example 92, N-(5-((4-chlorobenzyl)oxy)-1,3,4-thiadiazol-2-yl)-6-cyano-4-(2-methoxyphenyl)nicotinamide]	≤ 200 nM
O=C(Nc1nnc(OCc2ccc(Cl)cc2)s1)c1cnccc1-c1ccccc1OC1CC1 [Example 93, N-(5-((4-chlorobenzyl)oxy)-1,3,4-thiadiazol-2-yl)-4-(2-cyclopropoxyphenyl)nicotinamide]	≤ 200 nM
O=C(Nc1nnc(OCc2ccc(Cl)cc2)s1)c1cccnc1-c1ccccc1 [Example 94, N-(5-((4-chlorobenzyl)oxy)-1,3,4-thiadiazol-2-yl)-2-phenylnicotinamide]	1000 to 10000 nM
COc1ccccc1-c1cnccc1C(=O)Nc1nnc(OCc2ccc(Cl)cc2)s1 [Example 95, N-(5-((4-chlorobenzyl)oxy)-1,3,4-thiadiazol-2-yl)-3-(2-methoxyphenyl)isonicotinamide]	≤ 200 nM
COc1ccccc1-c1cc(C#N)ncc1C(=O)Nc1nnc(OCc2ccc(Cl)cn2)s1 [Example 96, N-(5-((5-chloropyridin-2-yl)methoxy)-1,3,4-thiadiazol-2-yl)-6-cyano-4-(2-methoxyphenyl)nicotinamide]	≤ 200 nM
COc1ccccc1-c1ccncc1C(=O)Nc1nnc(OCc2ccc(Br)cn2)s1 [Example 97, N-(5-((5-bromopyridin-2-yl)methoxy)-1,3,4-thiadiazol-2-yl)-4-(2-methoxy-phenyl)nicotinamide]	≤ 200 nM
O=C(Nc1nnc(OCc2ccc(Cl)cc2)s1)c1cnc(-c2ncc[nH]2)cc1N1CCOCC1 [Example 98, N-(5-((4-chlorobenzyl)oxy)-1,3,4-thiadiazol-2-yl)-6-(1H-imidazol-2-yl)-4-morpholinonicotinamide]	500 to 1000 nM
COc1ccccc1-c1cnccc1C(=O)Nc1nnc(OCc2ccc(Cl)cn2)s1 [Example 99, N-[5-[(5-chloropyridin-2-yl)methoxy]-1,3,4-thiadiazol-2-yl]-3-(2-methoxyphenyl)pyridine-4-carboxamide]	≤ 200 nM
O=C(Nc1nnc(OCc2ccc(Cl)cc2)s1)c1ccncc1-c1ccccc1OC(F)F [Example 100, N-(5-((4-chlorobenzyl)oxy)-1,3,4-thiadiazol-2-yl)-3-(2-(difluoromethoxy)phenyl)isonicotinamide]	≤ 200 nM
COc1ccccc1-c1cnccc1C(=O)Nc1nnc(OCc2ccc(C3CC3)nc2)s1 [Example 101, N-[5-[(6-cyclopropylpyridin-3-yl)methoxy]-1,3,4-thiadiazol-2-yl]-3-(2-methoxyphenyl)pyridine-4-carboxamide]	≤ 200 nM
COc1ccccc1-c1cc(CO)ncc1C(=O)Nc1nnc(OCc2ccc(Cl)cc2)s1 [Example 102, N-(5-((4-chlorobenzyl)oxy)-1,3,4-thiadiazol-2-yl)-6-(hydroxymethyl)-4-(2-methoxyphenyl)nicotinamide]	≤ 200 nM
O=C(Nc1nnc(OCc2ccc(Cl)cc2)s1)c1ccncc1-c1cccc2nsnc12 [Example 103, 3-(benzo[c][1,2,5]thiadiazol-4-yl)-N-(5-((4-chlorobenzyl)oxy)-1,3,4-thiadiazol-2-yl)isonicotinamide]	≤ 200 nM
O=C(Nc1nnc(OCc2ccc(Cl)cn2)s1)c1cnc(CO)cc1-c1ccccc1OC(F)F [Example 104, N-(5-((5-chloropyridin-2-yl)methoxy)-1,3,4-thiadiazol-2-yl)-4-(2-(difluoromethoxy)phenyl)-6-(hydroxymethyl)nicotinamide]	≤ 200 nM
COc1ccccc1-c1cc(CC#N)ncc1C(=O)Nc1nnc(OCc2ccc(Cl)cc2)s1 [Example 105, N-(5-((4-chlorobenzyl)oxy)-1,3,4-thiadiazol-2-yl)-6-(cyanomethyl)-4-(2-methoxyphenyl)nicotinamide]	≤ 200 nM
COc1ccccc1-c1cnncc1C(=O)Nc1nnc(OCc2ccc(Cl)cn2)s1 [Example 106, N-(5-((5-chloropyridin-2-yl)methoxy)-1,3,4-thiadiazol-2-yl)-5-(2-methoxyphenyl)pyridazine-4-carboxamide]	≤ 200 nM
COc1ccccc1-c1cnccc1C(=O)Nc1nnc(OCc2ccc(Cl)c3[nH]ncc23)s1 [Example 107, N-(5-((7-chloro-1H-indazol-4-yl)methoxy)-1,3,4-thiadiazol-2-yl)-3-(2-methoxyphenyl)isonicotinamide]	≤ 200 nM

SMILES	IC50
N#Cc1ccc(OC(F)F)c(-c2cnccc2C(=O)Nc2nnc(OCc3ccc(Cl)cc3)s2)c1 [Example 108, N-(5-((4-chlorobenzyl)oxy)-1,3,4-thiadiazol-2-yl)-3-(5-cyano-2-(difluoromethoxy)phenyl)isonicotinamide]	≤ 200 nM
O=C(Nc1nnc(OCc2ccc(Cl)cc2)s1)c1ccncc1-c1c(F)cccc1OC(F)F [Example 109, N-(5-((4-chlorobenzyl)oxy)-1,3,4-thiadiazol-2-yl)-3-(2-(difluoromethoxy)-6-fluorophenyl)isonicotinamide]	≤ 200 nM
C[C@H]1COC[C@H](C)N1c1cnccc1C(=O)Nc1nnc(OCc2ccc(Cl)cc2)s1 [Example 110, N-(5-((4-chlorobenzyl)oxy)-1,3,4-thiadiazol-2-yl)-3-((3S,5S)-3,5-dimethylmorpholino)isonicotinamide]	≤ 200 nM
O=C(Nc1nnc(OCc2ccc(Cl)cc2)s1)c1ccncc1-c1cccc2ncoc12 [Example 111, 3-(benzo[d]oxazol-7-yl)-N-(5-((4-chlorobenzyl)oxy)-1,3,4-thiadiazol-2-yl)isonicotinamide]	≤ 200 nM
O=C(Nc1nnc(OCc2ccc(Cl)cc2)s1)c1cnncc1-c1ccccc1OC(F)F [Example 112, N-(5-((4-chlorobenzyl)oxy)-1,3,4-thiadiazol-2-yl)-5-(2-(difluoromethoxy)phenyl)pyridazine-4-carboxamide]	≤ 200 nM
COc1ccccc1-c1cc(C)ncc1C(=O)Nc1nnc(OCc2ccc(Cl)cn2)s1 [Example 113, N-(5-((5-chloropyridin-2-yl)methoxy)-1,3,4-thiadiazol-2-yl)-4-(2-methoxyphenyl)-6-methylnicotinamide]	≤ 200 nM
Cc1cc(-c2ccccc2OC(F)F)c(C(=O)Nc2nnc(OCc3ccc(Cl)cc3)s2)cn1 [Example 114, N-[5-[(4-chlorophenyl)methoxy]-1,3,4-thiadiazol-2-yl]-4-[2-(difluoromethoxy)phenyl]-6-methylpyridine-3-carboxamide]	≤ 200 nM
Cc1cc(-c2ccccc2OC(F)F)c(C(=O)Nc2nnc(OCc3ccc(Cl)cn3)s2)cn1 [Example 115, N-[5-[(5-chloropyridin-2-yl)methoxy]-1,3,4-thiadiazol-2-yl]-4-[2-(difluoromethoxy)phenyl]-6-methylpyridine-3-carboxamide]	≤ 200 nM
COc1ccc(C#N)cc1-c1cc(C)ncc1C(=O)Nc1nnc(OCc2ccc(Cl)cc2)s1 [Example 116, N-[5-[(4-chlorophenyl)methoxy]-1,3,4-thiadiazol-2-yl]-4-(5-cyano-2-methoxyphenyl)-6-methylpyridine-3-carboxamide]	≤ 200 nM
COc1ccc(C#N)cc1-c1cc(C)ncc1C(=O)Nc1nnc(OCc2ccc(Cl)cn2)s1 [Example 117, N-[5-[(5-chloropyridin-2-yl)methoxy]-1,3,4-thiadiazol-2-yl]-4-(5-cyano-2-methoxyphenyl)-6-methylpyridine-3-carboxamide]	≤ 200 nM
Cc1cn[nH]c1-c1cnccc1C(=O)Nc1nnc(OCc2ccc(Cl)cc2)s1 [Example 118, N-(5-((4-chlorobenzyl)oxy)-1,3,4-thiadiazol-2-yl)-3-(4-methyl-1H-pyrazol-5-yl)isonicotinamide]	200 to 500 nM
O=C(Nc1nnc(OCc2ccc(Cl)cc2)s1)c1ccncc1-c1cccc2[nH]ncc12 [Example 119, N-(5-((4-chlorobenzyl)oxy)-1,3,4-thiadiazol-2-yl)-3-(1H-indazol-4-yl)isonicotinamide]	≤ 200 nM
O=C1COc2c(cccc2-c2cnccc2C(=O)Nc2nnc(OCc3ccc(Cl)cc3)s2)N1 [Example 120, N-(5-((4-chlorobenzyl)oxy)-1,3,4-thiadiazol-2-yl)-3-(3-oxo-3,4-dihydro-2H-benzo[b][1,4]oxazin-8-yl)isonicotinamide]	≤ 200 nM
O=C(Nc1nnc(OCc2ccc(Cl)cc2)s1)c1ccncc1-c1cccc2c1OC(F)(F)O2 [Example 121, N-(5-((4-chlorobenzyl)oxy)-1,3,4-thiadiazol-2-yl)-3-(2,2-difluorobenzo[d][1,3]dioxol-4-yl)isonicotinamide]	≤ 200 nM
Cn1cc(-c2ccncc2C(=O)Nc2nnc(OCc3ccc(Cl)cc3)s2)ccc1=O [Example 122, N-(5-((4-chlorobenzyl)oxy)-1,3,4-thiadiazol-2-yl)-1-methyl-6-oxo-1,6-dihydro-[3,4′-bipyridine]-3′-carboxamide]	≤ 200 nM
COc1ccc(C#N)cc1-c1cnccc1C(=O)Nc1nnc(OCc2ccc(Cl)cc2)s1 [Example 123, N-(5-((4-chlorobenzyl)oxy)-1,3,4-thiadiazol-2-yl)-3-(5-cyano-2-methoxyphenyl)isonicotinamide]	≤ 200 nM
COc1cccc(F)c1-c1cnccc1C(=O)Nc1nnc(OCc2ccc(Cl)cc2)s1 [Example 124, N-(5-((4-chlorobenzyl)oxy)-1,3,4-thiadiazol-2-yl)-3-(2-fluoro-6-methoxyphenyl)isonicotinamide]	≤ 200 nM
COc1cccc(Cl)c1-c1cnccc1C(=O)Nc1nnc(OCc2ccc(Cl)cc2)s1 [Example 125, 3-(2-chloro-6-methoxyphenyl)-N-(5-((4-chlorobenzyl)oxy)-1,3,4-thiadiazol-2-yl)isonicotinamide]	≤ 200 nM
